From US20250019371A1, “SMALL-MOLECULAR INHIBITORS FOR THE BETA-CATENIN/ B-CELL LYMPHOMA 9 PROTEIN-PROTEIN INTERACTION” (H. LEE MOFFITT CANCER CENTER AND RESEARCH INSTITUTE, INC., priority 2021, published 2025) come the findings set out here.

For test [1], the system named is Axin2, cyclin D1 and LEF1 mRNA. As to the kind of experiment: qPCR of Wnt target genes in Wnt 3a-activated MDA-MB-231 cells. The class given is cell-based, human. To be noted: 24 h, HPRT spared. The method, then: (§1) Quantitative Real Time PCR analysis. SW480 cells at 1×10^6 cells/mL were treated with inhibitors at different concentrations for 24 h. MDA-MB-231 cells at 1×10^6 cells/mL were treated with 100 ng/mL recombinant Wnt 3a (rmW3aL-010, Time BioScience) for 30 min, then the inhibitors at different concentration were added and incubated for 24 h. Total RNAs were extracted with TRIzol (15596026, Life Technologies), and the cDNA was synthesized with the superscript III first-strand kit (18080-051, Invitrogen). qPCR experiments were performed using the iQTM SYBR green supermix kit (170-8880, BIO-RAD) on an CFX96 Real Time System (BIO-RAD). The threshold cycle (CT) values were normalized to that of internal reference GAPDH. Experiments were performed in triplicate. The primer pairs are shown below
(Real-time PCR tracks product formation cycle by cycle.)

Test [2] has as its system MDA-MB-231. As to the kind of experiment: MTS cell viability assay, MDA-MB-231. Type of test: cell-based. To be noted: Homo sapiens, 72 h, Wnt/β-catenin hyperactive, mean ± SD (n = 3). Here is the method:
(§2) MTS Cell Growth Inhibition Experiments. Colorectal cancer cells (SW480 and HCT116) and triple negative breast cancer cells (MDA-MB-231 and MDA-MB-468) were seeded in 96-well plates at 5×10^3 cells/well in DMEM with 10% FCS, maintained overnight at 37° C., and incubated with the tested compounds at various concentrations. Human mammary epithelial cell MCF10A were seeded in 96-well plates at 1×10^4 cells/well in MEGM (CC-3150, Lonza) with 100 ng/mL cholera toxin, maintained overnight at 37° C., and incubated with the tested compounds at various concentrations. Cell viability was monitored after 72 h using a freshly prepared mixture of 1 part phenazine methosulfate (PMS, Sigma) solution (0.92 mg/mL) and 19 parts 3-(4,5-dimethylthiazol-2-yl)-5-(3-carboxymethoxyphenyl)-2-(4-sulfophenyl)-2H-tetrazolium (MTS, Promega) solution (2 mg/mL). Cells were incubated in 10 μL of this solution at 37° C. for 3 h, and A490 was measured. […] Experiments were performed in triplicate.
Background: Tetrazolium assays rely on reduction of a dye to a coloured formazan, in cell work by metabolically active cells.

In test [3] the test system is β-catenin/BCL9 PPI. As to the kind of experiment: Co-immunoprecipitation in HCT116 cells, β-catenin/BCL9. Type of test: cell-based. The note with it: 24 h, full-length proteins. Here is the method: (§3) C0-Immunoprecipitation (C0-IP) Experiments. HCT116 cancer cells with hyperactive 8-catenin signaling at 1×10^6 cells/mL were treated with different concentrations of the inhibitor for 24 h. Cells were then lysed in buffer containing 50 mM Tris, pH 7.4, 150 mM NaCl, 1% Nonidet P-40, 2 mM EDTA, and protease inhibitors. The cell lysates were pre-adsorbed to A/G plus agarose (sc-2003, Santa Cruz Biotechnology) at 4° C. for 1 h. Pre-adsorbed lysates were incubated with a specific primary antibody against β-catenin (610153, BD Biosciences) overnight at 4° C. A/G plus agarose was then added to the lysate mixture and incubated for 3 h. The beads were washed four times with the lysis buffer at 4° C. The bound protein was eluted by boiling in the SDS sample buffer and loaded onto 8% SDS polyacrylamide gel for electrophoretic analysis. Separated proteins were transferred onto nitrocellulose membranes for immunoblot analysis. The antibodies against BCL9 (ab37305, Abcam) and E-cadherin (610404, BD Biosciences), were incubated with the membranes, respectively. IRDye 680LT goat anti mouse IgG (827-11080, LiCOR) and IRDye 800CW goat anti rabbit IgG (926-32211, LiCOR) were used as the secondary antibodies. The images were detected by the Odyssey Infrared Imaging System (LiCOR). Experiments were performed in triplicate.

Test [4] has as its system Axin2 and cyclin D1 protein expression. As to the kind of experiment: Western blot of Wnt target genes in SW480 cells. Type of test: cell-based. The note with it: 24 h. The method, then: Western Blotting of Wnt Target Genes. SW480 cells at 1×10^6 cells/mL were treated with different concentrations of inhibitors for 24 h. Cells were lysed in buffer containing 50 mM Tris, pH 7.4, 150 mM NaCl, 1% Nonidet P-40, 2 mM EDTA, and protease inhibitors. After centrifugation at 12,000 rpm for 20 min at 4° C., the supernatant was loaded onto an 8% SDS polyacrylamide gel for electrophoretic analysis. Separated proteins were transferred onto nitrocellulose membranes for immunoblot analysis. The antibodies against Axin2 (MA5-15015, Thermo Fisher), cyclin D1 (sc-853, Santa Cruz Biotechnology), and β-tubulin (sc-55529, Santa Cruz Biotechnology) were incubated with the membranes overnight at 4° C., respectively. IRDye 680LT goat anti-mouse IgG (827-11080, LiCOR) or IRDye 800CW goat anti-rabbit IgG (827-08365, LiCOR) was used as the secondary antibody. The images were detected by the Odyssey Infrared Imaging System (Odyssey Fc, LiCOR). Experiments were performed in duplicate.
In general terms: In western blotting, separated proteins are transferred to a membrane and probed.

Test [5] deals with MCF10A. As to the kind of experiment: MTS cell viability assay, MCF10A. Type of test: cell-based, human. To be noted: Homo sapiens, MCF-10A; 72 h, Wnt/β-catenin normal, mean ± SD (n = 3). The method, then: as §2
Test [6] concerns MDA-MB-468. As to the kind of experiment: MTS cell viability assay, MDA-MB-468. The class given is cell-based. To be noted: Homo sapiens, 72 h, Wnt/β-catenin hyperactive, mean ± SD (n = 3). The method, then:
as §2

The subject of test [7] is β-catenin/E-cadherin PPI. As to the kind of experiment: Co-immunoprecipitation in HCT116 cells, β-catenin/E-cadherin. The class given is cell-based. The note with it: concentrations sufficient to disrupt β-catenin/BCL9. The method, then: as §3
For test [8], the system named is HCT116. As to the kind of experiment: MTS cell viability assay, HCT116. Type of test: cell-based. The note with it: Homo sapiens, HCT-116; 72 h, Wnt/β-catenin hyperactive, mean ± SD (n = 3). The method, then: as §2
Test [9] has as its system Axin2, cyclin D1 and LEF1 mRNA. As to the kind of experiment: qPCR of Wnt target genes in SW480 cells. Type of test: cell-based, human. To be noted: 24 h, HPRT spared. The method, then: as §1
Test [10] has as its system SW480. As to the kind of experiment: MTS cell viability assay, SW480. Type of test: cell-based. To be noted: Homo sapiens, 72 h, Wnt/β-catenin hyperactive, mean ± SD (n = 3). The method, then:
as §2

For the molecule `CC(C)(Oc1cccc(N2CCC[C@H](C(=O)N(Cc3ccc(-c4cccs4)cc3)C3CC3)C2)c1)C(=O)NS(=O)(=O)c1ccc(C#N)cc1` [Compound 30, (S)-((4-Cyanophenyl)sulfonyl) (2-(3-(3-(cyclopropyl(4-(thiophen-2-yl)benzyl)carbamoyl)piperidin-1-yl)phenoxy)-2-methylpropanoyl)amide], the “transcription of Wnt target genes Axin2, cyclin D1, LEF1 (qPCR)” value in test [1] and in test [9] was “dose-dependently inhibited transcription of these Wnt target genes” throughout. For the same molecule, the half-maximal inhibitory concentration (IC50) in test [2] came to 14.3 ± 0.57 µM; in test [5], 139 ± 3.16 µM; in test [6], 17.8 ± 1.01 µM; in test [8], 29.6 ± 1.02 µM; in test [10], 16.3 ± 2.04 µM. For the same molecule, the “disruption of β-catenin/BCL9 PPI in cells (co-IP)” value in test [3] is on record as “disrupted the β-catenin/BCL9 PPI in a dose-dependent manner”. Besides, the “protein expression levels of Axin2 and cyclin D1 (Western blot)” value in test [4] is reported as “dose-dependently decreased”. Moreover, the “effect on β-catenin/E-cadherin PPI in cells (co-IP)” value in test [7] is recorded as “did not affect the β-catenin/E-cadherin PPI”.

A word on the IC50: it is the concentration needed to halve the response being measured.
